Experiment [1] deals with T1, HDAC3:SMRT complex (Homo sapiens, UniProt O15379+Q9Y618).
T1 construct: Full-length HDAC3, and residues 350–480 of SMRT were cloned into pcDNA3 vectors; residues 350–480 of SMRT were cloned into pcDNA3 vectors; FLAG tag with TEV protease cleavage site (cleaved yes); made in house; host or cells: HEK293F cells (co-transfection, pcDNA3)
In words: Activation of HDAC3:SMRT deacetylase activity by inositol phosphates (BOC-Lys-AMC assay). The class given is biochemical. Conditions: for pKd / HDAC3 activation relative to maximal Ins(1,4,5,6)P4-stimulated activity: BOC-Lys-AMC assay; for pKd: one-site binding fit of HDAC activity vs inositol phosphate concentration, read-out: Kdapp (apparent Kd from activation titration); for HDAC3 activation relative to maximal Ins(1,4,5,6)P4-stimulated activity: titration / maximal activation; for HDAC activity as percentage of maximal Ins(1,4,5,6)P4 activity: compound tested at 200 μM. The protocol:
(§1) To understand the stereochemical basis underlying the activation of HDAC3 by inositol phosphates we investigated the ability of a range of inositol phosphates and derivatives to enhance the activity of HDAC3 in deacetylase assays. To achieve this we used an assay based on the complex of HDAC3 with an extended SMRT construct which is stable in the absence of inositol phosphate.
(§2) HDAC activity of the protein complex was measured using an HDAC assay with a BOC-Lys-AMC substrate. 50 nM HDAC3:SMRT or 50 nM HDAC1:MTA1 was incubated with 100 μM BOC-Lys-AMC substrate in a final volume of 50 μl buffer A (50 mM Tris pH 7.5, 50 mM NaCl, 5% Glycerol), in a black 96-well plate for 30 min at 37 °C.
(§3) To test the ability of inositol phosphates and derivatives to activate the complex, 50 nM HDAC3:SMRT (which had been stripped of its endogenous co-purified inositol phosphate) or 50 nM HDAC1:MTA1 was incubated with inositol phosphate or analogue for 30 min at 37 °C before the HDAC activity was measured. All measurements were performed in triplicate and data analysed using GraphPad Prism (version 6.0, GraphPad Software, Inc).

Experiment [2] deals with T2, HDAC1:MTA1 complex (Homo sapiens, UniProt Q13330+Q13547).
T2 construct: Full-length HDAC1 and residues 162–354 of MTA1 were cloned into pcDNA3 vectors; residues 162–354 of MTA1 were cloned into pcDNA3 vectors; FLAG tag with TEV protease cleavage site (cleaved yes); made in house; host or cells: HEK293F cells (co-transfection, pcDNA3)
T2 sequence (Q13547 whole entry, the tested form may be a part): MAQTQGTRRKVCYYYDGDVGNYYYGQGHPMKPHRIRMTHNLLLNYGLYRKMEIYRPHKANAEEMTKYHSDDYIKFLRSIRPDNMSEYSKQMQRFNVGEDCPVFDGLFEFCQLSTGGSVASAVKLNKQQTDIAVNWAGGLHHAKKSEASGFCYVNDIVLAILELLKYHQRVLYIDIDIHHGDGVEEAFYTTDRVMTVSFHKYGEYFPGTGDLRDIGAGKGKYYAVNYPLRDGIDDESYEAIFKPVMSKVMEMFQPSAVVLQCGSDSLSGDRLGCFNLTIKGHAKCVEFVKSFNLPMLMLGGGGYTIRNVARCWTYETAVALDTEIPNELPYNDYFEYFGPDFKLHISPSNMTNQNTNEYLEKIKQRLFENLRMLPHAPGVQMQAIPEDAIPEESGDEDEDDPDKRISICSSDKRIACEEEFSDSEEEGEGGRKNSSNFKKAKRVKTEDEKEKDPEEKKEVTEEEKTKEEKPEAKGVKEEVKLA
T2 sequence (Q13330 162-354): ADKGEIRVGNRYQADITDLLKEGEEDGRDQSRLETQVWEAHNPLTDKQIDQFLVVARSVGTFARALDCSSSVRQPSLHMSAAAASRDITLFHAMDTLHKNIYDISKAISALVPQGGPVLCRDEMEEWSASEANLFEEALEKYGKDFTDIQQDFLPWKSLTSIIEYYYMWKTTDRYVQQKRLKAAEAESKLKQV
In words: Activation of HDAC1:MTA1 deacetylase activity by inositol phosphates (BOC-Lys-AMC assay). The class given is biochemical. To be noted: for pKd: read-out: Kdapp (apparent Kd from activation titration). The protocol:
as §2, §3

For experiment [3], the target named is T3, HDAC3:SMRT (Homo sapiens, UniProt O15379+Q9Y618). In words: Fluorescence anisotropy displacement of 2-FAM-Ins(1,3,4,5,6)P5. Conditions: fluorescence anisotropy competition. The class given is binding. Further details: Full-length HDAC3, and residues 350–480 of SMRT were cloned into pcDNA3 vectors; residues 350–480 of SMRT were cloned into pcDNA3 vectors; FLAG tag with TEV protease cleavage site (cleaved yes); made in house; host or cells: HEK293F cells (co-transfection, pcDNA3). The protocol:
The concentration of protein was determined as that which gave 100% bound in the protein titration experiments. The data were analysed and IC50 values calculated using GraphPad Prism (version 6.0).
(In general: In fluorescence polarisation assays a small probe gives low polarisation when free and higher when bound to something large.)

The target in experiment [4] is T3, HDAC3:SMRT. As to the kind of experiment: Michaelis-Menten enzyme kinetics on Caliper EZ Reader with H4K16ac peptide. To be noted: H4 12–18K16ac peptide; in the presence of the inositol phosphate. The class given is biochemical. Further details: Full-length HDAC3, and residues 350–480 of SMRT were cloned into pcDNA3 vectors; residues 350–480 of SMRT were cloned into pcDNA3 vectors; FLAG tag with TEV protease cleavage site (cleaved yes); made in house; host or cells: HEK293F cells (co-transfection, pcDNA3). The text has this:
(§4) To explore further the differences between the two complexes we established a more physiological, real-time kinetic assay using substrates based on the tails of histones H4 and H3. The peptides tested were; H4 12–18(K16ac), H3 23–29(K27ac) and H3 6–12(K9ac). […] HDAC3:SMRT is most catalytically active against H3 23–29(K27ac) (Supplementary Fig. 7), whereas HDAC1:MTA1 is most catalytically active against H4 12–18(K16ac) (Fig. 4d). In both cases an approximate 3-fold greater kcat is observed for the preferred versus non-preferred substrate, in the absence of inositol phosphate. […] The net effect of both inositol phosphates tested was between a two and fivefold increase in catalytic efficiency (kcat/Km) (Fig. 4c,d, Supplementary Fig. 7).
(§5) Michaelis–Menten kinetics were determined using a HDAC assay on the Caliper EZ Reader II system (Caliper Life Sciences, http://www.caliperls.com). To assess the effect of inositol phosphate, 20 nM HDAC3:SMRT or 80 nM HDAC1:MTA1 were pre-mixed with InsP6 before dilution and addition of fluorescein-labelled H4K16Ac substrate. Reactions were carried out in duplicate in 30 μl reaction volumes, performed at room temperature in 50 mM Tris pH 7.5, 50 mM NaCl, 5% glycerol. Data was analysed using GraphPad Prism (version 6.0).

Experiment [5] addresses T4, HDAC3:SMRT complex (Homo sapiens, UniProt O15379).
T4 construct: Full-length HDAC3, and residues 350–480 of SMRT were cloned into pcDNA3 vectors; residues 350–480 of SMRT were cloned into pcDNA3 vectors; FLAG tag with TEV protease cleavage site (cleaved yes); made in house; host or cells: HEK293F cells (co-transfection, pcDNA3)
In words: Activation of HDAC3:SMRT deacetylase activity by inositol phosphates (BOC-Lys-AMC assay). In kind it is biochemical. Conditions: BOC-Lys-AMC assay; one-site binding fit of HDAC activity vs inositol phosphate concentration; read-out: Kdapp (apparent Kd from activation titration). The protocol:
as §1, §2, §3

For a further experiment, the target named is T5, HDAC1:MTA1 (Homo sapiens, UniProt Q13330+Q13547).
T5 construct: Full-length HDAC1 and residues 162–354 of MTA1 were cloned into pcDNA3 vectors; residues 162–354 of MTA1 were cloned into pcDNA3 vectors; FLAG tag with TEV protease cleavage site (cleaved yes); made in house; host or cells: HEK293F cells (co-transfection, pcDNA3)
T5 sequence (Q13547 whole entry, the tested form may be a part): as the sequence (Q13547 whole entry, the tested form may be a part) above
T5 sequence (Q13330 162-354): as the sequence (Q13330 162-354) above
In words: Michaelis-Menten enzyme kinetics on Caliper EZ Reader with H4K16ac peptide. In kind it is biochemical. To be noted: H4 12–18K16ac peptide; in the presence of the inositol phosphate.
Description: as §4, §5

For experiment [6], the target named is HDAC1:MTA1 complex (UniProt Q13547).
HDAC1:MTA1 complex (UniProt Q13547), sequence (Q13547 whole entry, one chain of several): as the sequence (Q13547 whole entry, the tested form may be a part) above

pIC50, pKd: −log10 of the molar value. “Also recorded” adds a separate entry of the source.

T1 sequence (O15379 whole entry, the tested form may be a part): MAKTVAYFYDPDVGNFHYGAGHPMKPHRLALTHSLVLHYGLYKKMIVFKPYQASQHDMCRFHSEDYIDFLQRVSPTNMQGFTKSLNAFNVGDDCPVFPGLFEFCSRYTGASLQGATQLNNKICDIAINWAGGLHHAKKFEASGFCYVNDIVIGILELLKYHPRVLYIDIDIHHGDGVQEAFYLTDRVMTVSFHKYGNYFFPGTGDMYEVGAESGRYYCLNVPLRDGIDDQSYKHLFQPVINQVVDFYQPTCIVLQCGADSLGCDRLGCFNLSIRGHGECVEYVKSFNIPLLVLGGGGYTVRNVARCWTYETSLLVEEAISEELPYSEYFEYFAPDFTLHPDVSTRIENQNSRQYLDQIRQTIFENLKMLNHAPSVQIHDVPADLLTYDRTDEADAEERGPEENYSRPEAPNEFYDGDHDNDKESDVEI
T1 sequence (Q9Y618 350-480): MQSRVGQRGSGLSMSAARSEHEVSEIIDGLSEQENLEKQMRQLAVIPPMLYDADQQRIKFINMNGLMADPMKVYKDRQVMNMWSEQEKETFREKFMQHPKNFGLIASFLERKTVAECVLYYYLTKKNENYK
T3 sequence (O15379 whole entry, the tested form may be a part): as the sequence (O15379 whole entry, the tested form may be a part) above
T3 sequence (Q9Y618 350-480): as the sequence (Q9Y618 350-480) above
T4 sequence (O15379 whole entry, the tested form may be a part): as the sequence (O15379 whole entry, the tested form may be a part) above
T4 sequence (Q9Y618 350-480, further chain): as the sequence (Q9Y618 350-480) above

`O=P(O)(O)OC1[C@@H](OP(=O)(O)O)[C@H](OP(=O)(O)O)C(O)[C@H](OP(=O)(O)O)[C@H]1OP(=O)(O)O` (stereo partly drawn): on HDAC3:SMRT complex [1], the pKd is 5.30 and the “HDAC3 activation relative to maximal Ins(1,4,5,6)P4-stimulated activity” value was “same degree as Ins(1,4,5,6)P4”. Further, at HDAC3:SMRT complex [1] (ratio of apparent Kd values), the “increase in apparent affinity compared with Ins(1,4,5,6)P4” value was “twofold”. Also, on HDAC1:MTA1 complex [2], the “activation of HDAC1:MTA1 complex” value is “can be activated” and the pKd was 5.59.
Usually pIC50 stands for the negative decadic logarithm of the IC50, by convention in mol/L. As for `O=P(O)(O)O[C@@H]1[C@H](O)[C@H](O)[C@@H](OP(=O)(O)O)[C@H](OP(=O)(O)O)[C@H]1O` [Ins(1,4,5)P3], the pIC50 at HDAC3:SMRT [3] (read-out: IC50 displacement of 2-FAM-Ins(1,3,4,5,6)P5) was 4.72. The “HDAC3 activation relative to maximal Ins(1,4,5,6)P4-stimulated activity” value on HDAC3:SMRT complex [1] was “completely unable to activate HDAC3; also recorded: completely inert; also recorded: do not activate the complex”.
On to `O=P(O)(O)O[C@H]1[C@H](O)[C@H](O)[C@H](OP(=O)(O)O)[C@@H](OP(=O)(O)O)[C@@H]1O` [Ins(1,4,6)P3], for which, at HDAC3:SMRT complex [1], the “HDAC3 activation relative to maximal Ins(1,4,5,6)P4-stimulated activity” value is reported as “completely inert”.
As usually defined, the kcat is the number of substrate molecules converted per active site and unit of time at saturation. Turning to `O=P(O)(O)O[C@@H]1[C@@H](OP(=O)(O)O)[C@H](OP(=O)(O)O)[C@@H](O)[C@@H](O)[C@H]1OP(=O)(O)O` [Ins(1,4,5,6)P4, inositol 1,4,5,6-tetrakisphosphate], the catalytic constant (kcat) on HDAC3:SMRT [4] turned out to be 2.72 s⁻¹; on HDAC1:MTA1, 0.90 s⁻¹. Besides, the results for the pKd at HDAC3:SMRT complex [5] and at HDAC1:MTA1 complex [2] were 5.00 and 5.33, respectively.
In the case of `Nc1ncnc2c1ncn2[C@@H]1O[C@H](CO)[C@@H](O[C@H]2O[C@H](CO)[C@@H](OP(=O)(O)O)[C@H](OP(=O)(O)O)[C@H]2O)[C@H]1OP(=O)(O)O` [adenophostin A], the “IC50 displacement of 2-FAM-Ins(1,3,4,5,6)P5” value on HDAC3:SMRT [3] is “nor competes for inositol phosphate binding”. In addition, the “HDAC activity as percentage of maximal Ins(1,4,5,6)P4 activity” value at HDAC3:SMRT complex [1] was “no activity; also recorded: neither activates HDAC3; also recorded: completely inert”.
Consider `O=P(O)(O)OC1C(O)C(OP(=O)(O)O)C(OP(=O)(O)O)C(OP(=O)(O)O)C1O` (stereo not drawn) [Ins(1,3,5,6)P4], for which, at HDAC3:SMRT complex [1], the pKd is 4.52.
For `O=C(CP(=O)(O)O)O[C@@H]1[C@@H](OP(=O)(O)O)[C@H](OP(=O)(O)O)[C@H](O)[C@H](OP(=O)(O)O)[C@H]1OP(=O)(O)O` [2-OH-5-PA-InsP4], at HDAC3:SMRT complex [1], the “HDAC activity as percentage of maximal Ins(1,4,5,6)P4 activity” value is on record as “completely inert”.
With “H4K16Hx (histone H4 residues 12-18 with hydroxamic acid functionality at K16) (from UniProt P62805 13-19) (peptide)”, the inhibition of the deacetylase activity of HDAC1:MTA1 (IC50) with HDAC1:MTA1 complex [6] came out at 0.336 µM.
In the case of `O=P(O)(O)O[C@H]1[C@H](OP(=O)(O)O)[C@@H](OP(=O)(O)O)[C@@H](O)[C@@H](O)[C@@H]1OP(=O)(O)O` [Ins(3,4,5,6)P4], on HDAC3:SMRT complex [1], the pKd is 4.39.

The values above are taken from PMC4848466, “Insights into the activation mechanism of class I HDAC complexes by inositol phosphates” (Nature Communications, 2016).
